Laboratory results reported in patent US20260000070A1 (priority 2023, published 2026).

Test system: endothelial cells / vascular system of perfused tissue

With CNCC(O)c1ccc(O)c(O)c1 (centres unmarked) [adrenaline] the flow rate was “decrease” and the pressure was “increase”.
